Holding throughout (type): cell-based
In one test the test system is Lactobacillus jensenii. The test can be described thus: Gram-stained smear of co-culture gel, Gram-positive rods (G+b). The settings on record: for Smear G^+b: cultivated 32 hours. From the text: (§1) 2.1 Experimental strains: one Lactococcus lactis strain and one Lactobacillus jensenii strain, both were clinical isolates.
(§2) The pH value was adjusted to 5.0.
(§3) 2.4 Experimental procedure: the test gel tubes containing different concentrations of antimicrobial agents, as shown in Tables 1 to 6 were inoculated with 100 microliters of Lactobacillus lactis suspension and 100 microliters of Lactobacillus jensenii suspension at the same time. The turbidities of both suspensions were 0.5 MCF. Then the tubes were cultivated at 37° C. and under 5 percent CO2 for 32 hours. Then the changes of the pH values of gels were tested. The gels were smeared, Gram stained, and microscopically examined for the morphology and quantity of bacteria.

For test [1], the system named is three strains of Staphylococcus aureus isolated from the vaginal secretion of patients with vaginitis. The test can be described thus: Growth in enrichment broth (turbidity after 24 hours), clinical strains. The settings on record: 0.05 percent (weight/volume) in enrichment broth pH 4.8, 37° C. 24 hours. From the text: (§4) a. Experimental strains, three strains of Escherichia coli and three strains of Staphylococcus aureus, which were all isolated from the vaginal secretion of patients with vaginitis.
(§5) b. Enrichment broth, which contained 1 percent of yeast extract powder, 9 percent of sucrose, 0.025 percent of manganese sulfate (MnSO4.4H2O), 0.058 percent of magnesium sulfate (MgSO4.7H2O), and 0.9 percent of lactic acid, the pH value of the broth was adjusted to 4.8, and the enrichment broth was sterilized for later use;
(§6) (2). Experimental groups: the requirements for aseptic operation technique were strictly followed to prepare the sterile test tubes:
(§7) a. sodium benzoate group: each test tube contained 5 milliliters of enrichment broth, and was added in 0.05 percent (weight/volume) sodium benzoate;
(§8) b. 2-phenylethanol group: each test tube contained 5 milliliters of enrichment broth, and was added in 0.05 percent (weight/volume) of 2-phenylethanol;
(§9) c. sodium propionate group: each test tube contained 5 milliliters of enrichment broth, and was added in 0.25 percent (weight/volume) of sodium propionate;
(§10) d. “a group of the combinations of sodium benzoate and sodium propionate”: each test tube contained 5 milliliters of enrichment broth, and was added in 0.05 percent (weight/volume) of sodium benzoate and 0.25 percent (weight/volume) of sodium propionate;
(§11) e. “a group of the combinations of sodium benzoate and 2-phenylethanol”: each test tube contained 5 milliliters of enrichment broth, and was added in 0.05 percent (weight/volume) of sodium benzoate and 0.05 percent (weight/volume) of 2-phenylethanol;
(§12) f. “a group of the combinations of sodium propionate and 2-phenylethanol”: each test tube contained 5 milliliters of enrichment broth, and was added in 0.25 percent (weight/volume) of sodium propionate and 0.05 percent (weight/volume) of 2-phenylethanol;
(§13) g. “a group of the combinations of sodium benzoate, sodium propionate and 2-phenylethanol”: each test tube contained 5 milliliters of enrichment broth, and was added in 0.05 percent (weight/volume) of sodium benzoate, 0.25 percent (weight/volume) of sodium propionate, and 0.05 percent (weight/volume) of 2-phenylethanol;
(§14) h. positive control: one tube that contained 5 milliliters of enrichment broth without adding in any of the 2-phenylethanol, sodium benzoate, and sodium propionate, but inoculated the suspension of Escherichia coli or Staphylococcus aureus.
(§15) i. negative control: one tube that contained 5 milliliters of enrichment broth without adding in any of the 2-phenylethanol, sodium benzoate, and sodium propionate, and not inoculated the suspension of Escherichia coli or Staphylococcus aureus.
(§16) The requirements for aseptic operation technique were strictly followed to prepare the bacterial suspensions. The colonies of Escherichia coli and Staphylococcus aureus were diluted with physiological saline respectively to prepare bacterial suspension. The turbidities of the Escherichia coli suspension and the Staphylococcus aureus suspension were adjusted to 0.5 MCF (about 10^8 CFU/ml) by a turbidimeter. 1 milliliter of the 0.5 MCF bacterial suspensions were added into 9 milliliters of the enrichment broth respectively, so each bacterial solution was diluted for ten times to contain 10^7 CFU/ml of bacterial organisms.
(§17) The requirements for aseptic operation technique were strictly followed to take 100 microliters of the prepared bacterial suspensions respectively, and to add the bacterial suspensions into the aforesaid test tubes from a to h as well as positive control tube. No bacterial suspension was added into the negative control tube i.
(§18) The above tubes were cultured in a biochemical incubator at 37° C. for 24 hours, then turbidity changes of the test tube solutions were observed and recorded.
(§19) Remark: “+” means the growth of bacteria; “−” means no growth of bacteria.

Test [2] has as its system Lactococcus lactis and Lactobacillus jensenii. Description: pH of test gel after co-culture of Lactococcus lactis and Lactobacillus jensenii. The settings on record: cultivated 32 hours.
Description: as §1, §2, §3

In test [3] the test system is three strains of Escherichia coli isolated from the vaginal secretion of patients with vaginitis. The test can be described thus: Growth in enrichment broth (turbidity after 24 hours), clinical strains. The settings on record: 0.05 percent (weight/volume) in enrichment broth pH 4.8, 37° C. 24 hours.
Description: as §4, §5, §6, §7, §8, §9, §10, §11, §12, §13, §14, §15, §16, §17, §18, §19

The subject of a further test is Lactococcus lactis. Description: Gram-stained smear of co-culture gel, Gram-positive cocci (G+c). The settings on record: for Smear G^+c: cultivated 32 hours.
Description: as §1, §2, §3

The subject of test [4] is nine strains of Candida albicans. Description: Growth of Candida in enrichment broth after 24 hours, clinical strains. Conditions: agent alone, 0.025 percent (weight/volume), broth pH 4.5, 37° C. 24 hours. From the text:
b. Enrichment broth: which contained 1 percent of yeast extract powder, 9 percent of sucrose, 0.025 percent of manganese sulfate (MnSO4.4H2O), 0.058 percent of magnesium sulfate (MgSO4.7H2O), and 0.9 percent of lactic acid, the pH value of the broth was adjusted to 4.5, and the enrichment broth was sterilized for later use;
(2) Experimental groups: the requirements of aseptic operation technique were strictly followed so to prepare the sterile test tubes;
a. sodium benzoate group: each test tube contained 5 milliliters enrichment broth, and was added in 0.025 percent (weight/volume) of sodium benzoate;
b. 2-phenylethanol group: each test tube contained 5 milliliters enrichment broth, and was added in 0.050 percent (weight/volume) of 2-phenylethanol;
c. sodium propionate group: each test tube contained 5 milliliters enrichment broth, and was added in 0.125 percent (weight/volume) of sodium propionate;
d. “a group of the combinations of sodium benzoate and sodium propionate”: each test tube contained 5 milliliters enrichment broth, and was added in 0.025 percent (weight/volume) of sodium benzoate and 0.125 percent (weight/volume) of sodium propionate;
e. “a group of the combinations of sodium benzoate and 2-phenylethanol”: each test tube contained 5 milliliters enrichment broth, and was added in 0.025 percent (weight/volume) of sodium benzoate and 0.050 percent (weight/volume) of 2-phenylethanol;
f. “a group of the combinations of sodium propionate and 2-phenylethanol”: each test tube contained 5 milliliters enrichment broth, and was added in 0.125 percent (weight/volume) of sodium propionate and 0.050 percent (weight/volume) of 2-phenylethanol;
g. “a group of the combinations of sodium benzoate, sodium propionate and 2-phenylethanol”: each test tube contained 5 milliliters enrichment broth, and was added in 0.025 percent (weight/volume) of sodium benzoate, 0.125 percent (weight/volume) of sodium propionate and 0.050 percent (weight/volume) of 2-phenylethanol;
h. positive control: the control tube of enrichment broth without adding in 2-phenylethanol, sodium benzoate, and sodium propionate; but inoculated the suspension of Candida albicans;
i. negative control: the control tube of enrichment broth without adding in 2-phenylethanol, sodium benzoate, and sodium propionate; and without inoculating Candida albicans;
The requirements for aseptic operation technique were strictly followed to prepare the suspension of organism. The colonies of each strain of Candida albicans organism were diluted with physiological saline respectively. The turbidities of the suspensions of Candida albicans organism were adjusted to 0.5 MCF (about 10^8 CFU/ml) by a turbidimeter. 1 milliliter of the 0.5 MCF organism suspension was added into 9 milliliters of enrichment broth. Each suspension was diluted for ten times to contain 10^7 CFU/ml of organisms.
the requirements for aseptic technique were strictly followed to take 100 microliters of the prepared organism suspension respectively and to add the suspension into the test tubes from a to h as well as the positive control tube. No organism suspension was added into the negative control tube i.
The above tubes were cultured in a biochemical incubator at 37° C. for 24 hours. Then the growth of Candida in each tube was observed and recorded.
Remark: “+” means the growth of organisms; “−” means no growth of organisms.

On to `O=C([O-])c1ccccc1.[Na+]` [sodium benzoate], for which the “Smear G^+b” value with Lactobacillus jensenii (0.035 % in test gel) is “G^+b+”; with Lactobacillus jensenii (0.05 % in test gel), “G^+b+”; in the test on Lactobacillus jensenii (0.065 % in test gel) it was “G^+b++”; in the test on Lactobacillus jensenii (0.1 % in test gel), “G^+b+++”. Also, the “inhibition effect on the growth of Lactobacillus” value in the test on Lactobacillus jensenii (0.065 to 0.1 percent) is “weaker inhibition effect”. In addition, the “could inhibit the growth of Staphylococcus aureus (agent alone, words)” value in test [1] is on record as “no one of the three antimicrobial agents”. Moreover, the pH value in test [2] (0.035 % in test gel) is reported as below 3.8; in test [2] (0.05 % in test gel), below 3.8; in test [2] (0.065 % in test gel) it was 4.1; in test [2] (0.1 % in test gel), 4.6. For the same compound, the “could inhibit the growth of Escherichia coli (agent alone, words)” value in test [3] is “no one of the three antimicrobial agents”. Also, the “Smear G^+c” value with Lactococcus lactis (0.035 % in test gel) is given as “G^+c++++”; in the test with Lactococcus lactis (0.05 % in test gel), “G^+c++++”; in the test with Lactococcus lactis (0.065 % in test gel), “G^+c++”; in the test on Lactococcus lactis (0.1 % in test gel), “G^+c+”. Besides, the “inhibition effect on the growth of Lactococcus lactis” value with Lactococcus lactis (0.065 to 0.1 percent) is reported as “stronger inhibition effect”. The “number of the nine Candida albicans strains that grew” value in test [4] is reported as “nine”.
